Reference: US20260048064A1, “AMORPHOUS SOLID DISPERSIONS COMPRISING NAPORAFENIB” (Novartis AG, priority 2022, published 2026)
Converted amounts (≈) assume the structure as drawn. Where a name gives a salt, the structure may show the parent alone.

Experiments:
Type in all cases: physicochemical
[1] = Photostability under light stress (Table 1C); details: RT, light dose 1.2 Lux·h*10^6
Source text: The photostability of crystalline hydrate and crystalline tosylate forms of Compound A under photo, or light stress is provided in Table 1C.

[2] = Solubility at various pH and in biorelevant media (Table 1B)
Source text: Compound A has very limited solubility in all pHs.

[3] = Stability in solution/suspension at pH 1, 4.5, 7.4 under heat (Table 1E); details: 5 days
[4] = Light stability, 1.2 MLux h (Table 1A)
Procedure: (§1) Several physical forms of Compound A were analyzed: the free base, tartrate salt, and tosylate salt.

[5] = Hygroscopicity (Table 1A)
Procedure: as §1

[6] = Bulk stability at 80° C./75% RH, 1 week (Table 1A)
Procedure: as §1

[7] = Polymorphism (Table 1A)
Procedure: as §1

[8] = Solubility at 25° C. in SGF, FaSSIF, FeSSIF (Table 1A)
Procedure: as §1

[9] = Bulk solid stability under thermal stress (Table 1D); details: 5 days
[10] = Stability in aqueous solutions (Table 1A)
Procedure: as §1

Cc1ccc(NC(=O)c2ccnc(C(F)(F)F)c2)cc1-c1cc(OCCO)nc(N2CCOCC2)c1 [Compound A (hydrate), N-(3-(2-(2-hydroxyethoxy)-6-morpholinopyridin-4-yl)-4-methylphenyl)-2-(trifluoromethyl)isonicotinamide]
Appearance/XRPD/DSC ([1]; Bulk): No change | Degradation Products [%] (HPLC) ([1]; Bulk): <1.0% | Degradation Products [%] (HPLC) ([1]; Ethanol): 18% | Solubility ([2]; FaSSIF V2): 4 µg/mL | pH final of solubility test ([2]; FaSSIF V2): 6.44 | Solubility ([2]; FeSSIF V2): 47 µg/mL | pH final of solubility test ([2]; FeSSIF V2): 5.6 | Solubility ([2]; SGF pH 2.0): 25 µg/mL | pH final of solubility test ([2]; SGF pH 2.0): 2.19 | Solubility ([2]; Water): 1 µg/mL | pH final of solubility test ([2]; Water): 5.99 | Solubility ([2]; pH 1): 170 µg/mL | pH final of solubility test ([2]; pH 1): 1.23 | Solubility ([2]; pH 4.5): 1 µg/mL | pH final of solubility test ([2]; pH 4.5): 4.0 | Solubility ([2]; pH 7.0): 0.8 µg/mL | pH final of solubility test ([2]; pH 7.0): 7.0

Cc1ccc(NC(=O)c2ccnc(C(F)(F)F)c2)cc1-c1cc(OCCO)nc(N2CCOCC2)c1 [Compound A (tosylate salt), N-(3-(2-(2-hydroxyethoxy)-6-morpholinopyridin-4-yl)-4-methylphenyl)-2-(trifluoromethyl)isonicotinamide]
Appearance/XRPD/DSC ([1]; Bulk): No change | Degradation Products [%] (HPLC) ([1]; Bulk): <1.0% | Degradation Products [%] (HPLC) ([1]; Ethanol): 97% | Parent remaining [%] (HPLC) ([3]; pH 1, 50 ° C.): 23% | Parent remaining [%] (HPLC) ([3]; pH 1, 80 ° C.): 0.2% | Parent remaining [%] (HPLC) ([3]; pH 1, RT): 97% | Parent remaining [%] (HPLC) ([3]; pH 4.5, 50 ° C.): >99% | Parent remaining [%] (HPLC) ([3]; pH 4.5, 80 ° C.): 98.6% | Parent remaining [%] (HPLC) ([3]; pH 4.5, RT): >99% | Parent remaining [%] (HPLC) ([3]; pH 7.4, 50 ° C.): 97% | Parent remaining [%] (HPLC) ([3]; pH 7.4, 80 ° C.): 74% | Parent remaining [%] (HPLC) ([3]; pH 7.4, RT): >99% | Light stability (1.2 MLux h) [4]: No degradation | Hygroscopicity [5]: Low | Bulk stability (degradation) [6]: 75% RH (1 week), no | Bulk stability (physical) [6]: Physically unstable at 80° C./ | Polymorphism [7]: No issue encountered | Solubility ([2]; FaSSIF V2): 16 µg/mL | pH final of solubility test ([2]; FaSSIF V2): 6.07 | Solubility ([2]; FeSSIF V2): 51 µg/mL | pH final of solubility test ([2]; FeSSIF V2): 5.41 | Solubility ([2]; SGF pH 2.0): 29 µg/mL | pH final of solubility test ([2]; SGF pH 2.0): 2.02 | Solubility ([2]; Water): 5140 µg/mL | pH final of solubility test ([2]; Water): 2.71 | Solubility ([2]; pH 1): 106 µg/mL | pH final of solubility test ([2]; pH 1): 1.23 | Solubility ([2]; pH 4.5): 2 µg/mL | pH final of solubility test ([2]; pH 4.5): 3.85 | Solubility ([2]; pH 7.0): 2 µg/mL | pH final of solubility test ([2]; pH 7.0): 6.83 | Solubility at 25° C. ([8]; FaSSIF): 1.1 µg/mL | pH final of solubility test ([8]; FaSSIF): 6.66 | Solubility at 25° C. ([8]; FeSSIF): 115.8 µg/mL | pH final of solubility test ([8]; FeSSIF): 5.58 | Solubility at 25° C. ([8]; SGF): 10 µg/mL | pH final of solubility test ([8]; SGF): 1.75 | Appearance/XRPD/DSC ([9]; 50 ° C.): No change | Parent remaining [%] (HPLC) ([9]; 50 ° C.): >99% | Appearance/XRPD/DSC ([9]; 80 ° C.): No change | Parent remaining [%] (HPLC) ([9]; 80 ° C.): >99% | Appearance/XRPD/DSC ([9]; RT): No change | Parent remaining [%] (HPLC) ([9]; RT): >99%

Cc1ccc(NC(=O)c2ccnc(C(F)(F)F)c2)cc1-c1cc(OCCO)nc(N2CCOCC2)c1 [Compound A (tartrate salt), N-(3-(2-(2-hydroxyethoxy)-6-morpholinopyridin-4-yl)-4-methylphenyl)-2-(trifluoromethyl)isonicotinamide]
Light stability (1.2 MLux h) [4]: Significant degradation | Hygroscopicity [5]: High | Bulk stability (degradation) [6]: week), significant | Polymorphism [7]: Potential issue | Stability in aqueous solutions ([10]; pH 1.2 and pH 10.0): Significant degradation | Stability in aqueous solutions ([10]; pH 2.9 to 6.8): Relatively stable at pH | Solubility at 25° C. ([8]; FaSSIF): 0.6 µg/mL | pH final of solubility test ([8]; FaSSIF): 3.54 | Solubility at 25° C. ([8]; FeSSIF): 109.2 µg/mL | pH final of solubility test ([8]; FeSSIF): 4.93 | Solubility at 25° C. ([8]; SGF): 53.5 µg/mL | pH final of solubility test ([8]; SGF): 1.89

Cc1ccc(NC(=O)c2ccnc(C(F)(F)F)c2)cc1-c1cc(OCCO)nc(N2CCOCC2)c1 [Compound A (free base), N-(3-(2-(2-hydroxyethoxy)-6-morpholinopyridin-4-yl)-4-methylphenyl)-2-(trifluoromethyl)isonicotinamide]
Light stability (1.2 MLux h) [4]: Slight degradation | Hygroscopicity [5]: Low | Bulk stability (degradation) [6]: week), slight | Polymorphism [7]: Yes | Stability in aqueous solutions ([10]; pH 1.2 and pH 10.0): Significant degradation | Stability in aqueous solutions ([10]; pH 2.9 to 6.8): Relatively stable at pH | Solubility ([2]; FaSSIF V2): 35 µg/mL (≈ 69.7 µM) | pH final of solubility test ([2]; FaSSIF V2): 6.51 | Solubility ([2]; FeSSIF V2): 576 µg/mL (≈ 1150 µM) | pH final of solubility test ([2]; FeSSIF V2): 5.82 | Solubility ([2]; SGF pH 2.0): 699 µg/mL (≈ 1390 µM) | pH final of solubility test ([2]; SGF pH 2.0): 1.86 | Solubility ([2]; Water): 2 µg/mL (≈ 3.98 µM) | pH final of solubility test ([2]; Water): 7.33 | Solubility ([2]; pH 1): 400 µg/mL (≈ 796 µM) | pH final of solubility test ([2]; pH 1): 1.07 | Solubility ([2]; pH 2): 140 µg/mL (≈ 279 µM) | pH final of solubility test ([2]; pH 2): 1.96 | pH final of solubility test ([2]; pH 4.5): 4.56 | Solubility ([2]; pH 4.5, aqueous buffer, thermodynamic from solid, pH 4.5, read-out: Solubility): 2 µg/mL (≈ 3.98 µM) | pH final of solubility test ([2]; pH 7.4): 7.33 | Solubility ([2]; pH 7.4, aqueous buffer, thermodynamic from solid, pH 7.4, read-out: Solubility): 1 µg/mL (≈ 1.99 µM) | Solubility at 25° C. ([8]; FaSSIF): 1.4 µg/mL (≈ 2.79 µM) | pH final of solubility test ([8]; FaSSIF): 6.91 | pH final of solubility test ([8]; FeSSIF): 6.08 | Solubility ([8]; FeSSIF, 25 °C, thermodynamic from solid): 137 µg/mL (≈ 273 µM) | Solubility at 25° C. ([8]; SGF): 2.1 µg/mL (≈ 4.18 µM) | pH final of solubility test ([8]; SGF): 2.02
